# According to PubChem BioAssay (NCI):
#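 Five compound concentrations were applied to cells in 96-well plates for 48 hours; endpoints were derived by simple linear interpolation of the resulting dose-response curve. TGI denotes the concentration required for complete inhibition of growth.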
# Key:
# Experiment in all cases: NCI-60 cell line screen, 48 h
# [1] = tested on: KM20L2 colon
# [2] = tested on: HCC-2998 colon
# [3] = tested on: MOLT-4 leukemia
# [4] = tested on: SNB-19 CNS
# [5] = tested on: SNB-75 CNS
# [6] = tested on: UACC-257 melanoma
# [7] = tested on: SK-MEL-2 melanoma
# [8] = tested on: RXF 393 renal
# [9] = tested on: UO-31 renal
# [10] = tested on: RXF-631 renal
# [11] = tested on: SW-620 colon
# [12] = tested on: OVCAR-3 ovarian
# [13] = tested on: A549 NSCLC
# [14] = tested on: ACHN renal
# [15] = tested on: LOX IMVI melanoma
# [16] = tested on: U251 CNS
# [17] = tested on: EKVX NSCLC
# [18] = tested on: CAKI-1 renal
# [19] = tested on: M14 melanoma
# [20] = tested on: NCI-H226 lung
# [21] = tested on: DMS 273 small cell lung
# [22] = tested on: TK-10 renal
# [23] = tested on: DLD-1 colon
# [24] = tested on: COLO 205 colon
# [25] = tested on: DMS 114 small cell lung
# [26] = tested on: NCI-H460 lung
# [27] = tested on: HOP-18 NSCLC
# [28] = tested on: OVCAR-5 ovarian
# [29] = tested on: SN12C renal
# [30] = tested on: CCRF-CEM leukemia
# [31] = tested on: M19-MEL melanoma
# [32] = tested on: SF-539 CNS
# [33] = tested on: LXFL 529 NSCLC
# [34] = tested on: KM12 colon
# [35] = tested on: HL-60(TB) leukemia
# [36] = tested on: HOP-62 NSCLC
# [37] = tested on: NCI-H23 lung
# [38] = tested on: UACC-62 melanoma
# [39] = tested on: RPMI-8226 leukemia
# [40] = tested on: HCT-15 colon
# [41] = tested on: SF-295 CNS
# [42] = tested on: SK-MEL-5 melanoma
# [43] = tested on: HT29 colon
# [44] = tested on: OVCAR-8 ovarian
# [45] = tested on: MALME-3M melanoma
# [46] = tested on: SF-268 CNS
# [47] = tested on: SK-MEL-28 melanoma
# [48] = tested on: OVCAR-4 ovarian
# [49] = tested on: NCI-H522 lung
# [50] = tested on: 786-0 renal
# [51] = tested on: K-562 leukemia
# [52] = tested on: SK-OV-3 ovarian
# [53] = tested on: IGROV1 ovarian
# [54] = tested on: XF 498 CNS
# [55] = tested on: SR leukemia
# [56] = tested on: HOP-92 NSCLC
# [57] = tested on: A498 renal
# [58] = tested on: SNB-78 CNS
# [59] = tested on: HCT-116 colon
smiles,measurement,setting,value
NC(N)=NNC(=O)CCn1[nH]c(=O)c(Cl)c(Cl)c1=O,TGI,[1],> 100 µM
same,TGI,[2],> 100 µM
same,TGI,[3],> 100 µM
same,TGI,[4],> 100 µM
same,TGI,[5],> 100 µM
same,TGI,[6],> 100 µM
same,TGI,[7],> 100 µM
same,TGI,[8],> 100 µM
same,TGI,[9],> 100 µM
same,TGI,[10],> 100 µM
same,TGI,[11],> 100 µM
same,TGI,[12],> 100 µM
same,TGI,[13],> 100 µM
same,TGI,[14],> 100 µM
same,TGI,[15],> 100 µM
same,TGI,[16],> 100 µM
same,TGI,[17],> 100 µM
same,TGI,[18],> 100 µM
same,TGI,[19],> 100 µM
same,TGI,[20],> 100 µM
same,TGI,[21],> 100 µM
same,TGI,[22],> 100 µM
same,TGI,[23],> 100 µM
same,TGI,[24],> 100 µM
same,TGI,[25],> 100 µM
same,TGI,[26],> 100 µM
same,TGI,[27],> 100 µM
same,TGI,[28],> 100 µM
same,TGI,[29],> 100 µM
same,TGI,[30],> 100 µM
same,TGI,[31],> 100 µM
same,TGI,[32],> 100 µM
same,TGI,[33],> 100 µM
same,TGI,[34],> 100 µM
same,TGI,[35],> 100 µM
same,TGI,[36],> 100 µM
same,TGI,[37],> 100 µM
same,TGI,[38],> 100 µM
same,TGI,[39],> 100 µM
same,TGI,[40],> 100 µM
same,TGI,[41],> 100 µM
same,TGI,[42],> 100 µM
same,TGI,[43],> 100 µM
same,TGI,[44],> 100 µM
same,TGI,[45],> 100 µM
same,TGI,[46],> 100 µM
same,TGI,[47],> 100 µM
same,TGI,[48],> 100 µM
same,TGI,[49],> 100 µM
same,TGI,[50],> 100 µM
same,TGI,[51],> 100 µM
same,TGI,[52],> 100 µM
same,TGI,[53],> 100 µM
same,TGI,[54],> 100 µM
COCOCCCCCO[Si](C)(C)C(C)(C)C,TGI,[1],75.8 µM
same,TGI,[55],49.6 µM
same,TGI,[2],31.9 µM
same,TGI,[3],36.9 µM
same,TGI,[4],30.6 µM
same,TGI,[5],83.8 µM
same,TGI,[6],40.2 µM
same,TGI,[7],31 µM
same,TGI,[8],31.9 µM
same,TGI,[9],42.8 µM
same,TGI,[10],52.8 µM
same,TGI,[11],33.5 µM
same,TGI,[12],27.6 µM
same,TGI,[13],50 µM
same,TGI,[14],27.7 µM
same,TGI,[15],31.2 µM
same,TGI,[16],29.4 µM
same,TGI,[17],46.8 µM
same,TGI,[19],48.7 µM
same,TGI,[22],97.6 µM
same,TGI,[23],> 100 µM
same,TGI,[24],38.5 µM
same,TGI,[25],35.9 µM
same,TGI,[26],43.4 µM
same,TGI,[27],65.3 µM
same,TGI,[28],44.9 µM
same,TGI,[29],32 µM
same,TGI,[30],58.1 µM
same,TGI,[31],70 µM
same,TGI,[32],40.8 µM
same,TGI,[33],> 100 µM
same,TGI,[34],63.2 µM
same,TGI,[35],30.9 µM
same,TGI,[37],42.7 µM
same,TGI,[38],64.6 µM
same,TGI,[39],51.9 µM
same,TGI,[40],32.1 µM
same,TGI,[56],36.9 µM
same,TGI,[41],30.1 µM
same,TGI,[42],30.3 µM
same,TGI,[43],30.8 µM
same,TGI,[44],41.2 µM
same,TGI,[45],47.9 µM
same,TGI,[57],77.8 µM
same,TGI,[46],27.9 µM
same,TGI,[47],> 100 µM
same,TGI,[49],28.6 µM
same,TGI,[50],29 µM
same,TGI,[51],54.9 µM
same,TGI,[52],> 100 µM
same,TGI,[58],48.3 µM
same,TGI,[53],69.7 µM
same,TGI,[59],26.4 µM
same,TGI,[54],31.6 µM
Cn1cc(NC(=O)c2cc(NC(=O)CCCCCCCCC(=O)Nc3cc(C(=O)Nc4cc(C(=O)NCCC(N)N)n(C)c4)n(C)c3)cn2C)cc1C(=O)NCCC(=N)N,TGI,[1],44 µM
same,TGI,[2],52 µM
same,TGI,[3],49.1 µM
same,TGI,[4],62.5 µM
same,TGI,[5],55.3 µM
same,TGI,[6],57 µM
same,TGI,[7],49.3 µM
same,TGI,[8],43.2 µM
same,TGI,[9],56.9 µM
same,TGI,[10],71.2 µM
same,TGI,[11],44.9 µM
same,TGI,[12],74.5 µM
same,TGI,[13],40 µM
same,TGI,[14],36.5 µM
same,TGI,[15],> 100 µM
same,TGI,[16],36.8 µM
same,TGI,[17],48.1 µM
same,TGI,[18],49.7 µM
same,TGI,[19],66.3 µM
same,TGI,[20],70.7 µM
same,TGI,[21],55.8 µM
same,TGI,[22],38.9 µM
same,TGI,[23],73.9 µM
same,TGI,[24],> 100 µM
same,TGI,[26],62 µM
same,TGI,[27],47.2 µM
same,TGI,[28],45.3 µM
same,TGI,[29],68.9 µM
same,TGI,[30],49.3 µM
same,TGI,[31],66 µM
same,TGI,[32],54.4 µM
same,TGI,[33],76.9 µM
same,TGI,[34],63.4 µM
same,TGI,[36],59.4 µM
same,TGI,[37],> 100 µM
same,TGI,[38],60.1 µM
same,TGI,[39],28.6 µM
same,TGI,[40],> 100 µM
same,TGI,[56],65.2 µM
same,TGI,[41],74.8 µM
same,TGI,[42],30.2 µM
same,TGI,[43],49.7 µM
same,TGI,[44],52.4 µM
same,TGI,[45],15.5 µM
same,TGI,[46],66.1 µM
same,TGI,[47],43.2 µM
same,TGI,[48],> 100 µM
same,TGI,[49],79.2 µM
same,TGI,[50],47.1 µM
same,TGI,[51],40.9 µM
same,TGI,[52],78.7 µM
same,TGI,[58],93.1 µM
same,TGI,[53],74.4 µM
same,TGI,[59],55.3 µM
same,TGI,[54],66.8 µM
